Reference: US8158810B2 (Gilead Sciences, Inc., priority 2006, dated 2012)

What was measured:
hMAO-A = molecular target: T1, hMAO-A (Homo sapiens, UniProt P21397); test: MAO-A inhibition assay; type: biochemical; settings: No = no inhibition; for hMAO-A inhibition up to 10 μM: printed in the IC50 hMAO-A column
T1 construct: purchased Sigma M7316
T1 sequence (P21397 1-527): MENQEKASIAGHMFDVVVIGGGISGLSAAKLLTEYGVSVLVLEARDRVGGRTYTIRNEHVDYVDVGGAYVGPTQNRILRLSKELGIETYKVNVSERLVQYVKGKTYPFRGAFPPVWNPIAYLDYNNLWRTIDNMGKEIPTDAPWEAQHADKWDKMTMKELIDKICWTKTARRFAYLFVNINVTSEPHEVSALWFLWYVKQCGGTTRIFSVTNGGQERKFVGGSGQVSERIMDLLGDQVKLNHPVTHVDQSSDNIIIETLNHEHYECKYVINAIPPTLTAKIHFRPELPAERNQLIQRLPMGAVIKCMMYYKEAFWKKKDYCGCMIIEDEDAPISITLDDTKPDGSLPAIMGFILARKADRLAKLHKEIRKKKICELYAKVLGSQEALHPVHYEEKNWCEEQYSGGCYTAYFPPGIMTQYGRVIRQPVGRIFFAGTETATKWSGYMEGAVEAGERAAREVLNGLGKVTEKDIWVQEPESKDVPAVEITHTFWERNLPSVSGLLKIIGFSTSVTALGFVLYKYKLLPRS
Method: (§1) MAO-A (Sigma M7316) and MAO-B (Sigma M7441) inhibition assays were conducted in 96-well micro-plates according to the method described by Zhou et al. [Analytical Biochemistry 253, 169-174, 1997]. […] Reactions were initiated by the addition of a pre-mixed solution of tyramine, horseradish peroxidase and Amplex Red, and were allowed to proceed at 37° C. for 30 min. Enzyme activities were determined by measuring absorbance at 570 nm (SpectralMax Plate reader), absorbance of oxidized Amplex Red generated by this horseradish peroxidase-coupled reaction. Nonspecifically formed products were determined in the presence of 2 and 10 µM clorgyline and deprenyl for MAO-A and MAO-B, respectively. IC50 values were determined by fitting concentration-inhibition data to sigmoidal dose-response curves with two-floating parameters: IC50 and Hill coefficient.

hMAO-B = molecular target: T2, hMAO-B (Homo sapiens, UniProt P27338); test: MAO-B inhibition assay; type: biochemical; settings: No = no inhibition; for hMAO-B inhibition at 10 μM: printed in the IC50 hMAO-B column
T2 construct: purchased Sigma M7441
T2 sequence (P27338 1-520): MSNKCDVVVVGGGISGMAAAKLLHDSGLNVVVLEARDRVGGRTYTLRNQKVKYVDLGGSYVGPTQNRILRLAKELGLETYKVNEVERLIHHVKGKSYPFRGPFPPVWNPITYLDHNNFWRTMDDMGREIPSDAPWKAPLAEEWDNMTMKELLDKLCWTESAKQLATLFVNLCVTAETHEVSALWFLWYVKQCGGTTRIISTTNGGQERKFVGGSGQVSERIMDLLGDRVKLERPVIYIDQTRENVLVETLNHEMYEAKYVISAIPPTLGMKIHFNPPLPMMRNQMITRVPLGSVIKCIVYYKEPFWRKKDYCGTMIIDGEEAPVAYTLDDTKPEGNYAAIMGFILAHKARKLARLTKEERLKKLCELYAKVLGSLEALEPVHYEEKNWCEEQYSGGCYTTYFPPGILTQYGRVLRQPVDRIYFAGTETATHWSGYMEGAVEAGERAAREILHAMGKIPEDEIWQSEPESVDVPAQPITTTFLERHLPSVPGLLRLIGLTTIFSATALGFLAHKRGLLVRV
Method: as §1

Row | SMILES | hMAO-A inhibition up to 10 μM (hMAO-A) | hMAO-B inhibition up to 10 μM (hMAO-B) | hMAO-B inhibition at 10 μM (hMAO-B) | hMAO-A inhibition up to 30 μM (hMAO-A) | hMAO-B inhibition up to 30 μM (hMAO-B)
1 | CNC(=O)c1coc(COc2ccc3c(=O)c(-c4ccc(O)cc4)coc3c2)n1 [PT-118, (2-{[3-(4-hydroxyphenyl)-4-oxochromen-7-yloxy]methyl}(1,3-oxazol-4-yl))-N-methylcarboxamide] | No | – | No | – | –
2 | NC(=O)c1ccc(COc2ccc3c(=O)c(-c4ccc(O)cc4)coc3c2)cc1 [PT-37, 4-{[3-(4-hydroxyphenyl)-4-oxochromen-7-yloxy]methyl}benzamide] | – | – | – | No | No
3 | O=c1c(-c2ccc(O)cc2)coc2cc(OCc3coc(-c4cc(F)cc(F)c4)n3)ccc12 [PT-14, 7-{[2-(3,5-difluorophenyl)(1,3-oxazol-4-yl)]methoxy}-3-(4-hydroxyphenyl)chromen-4-one] | No | – | No | – | –
4 | O=c1c(-c2ccc(O)cc2)coc2cc(OCc3nnc(-c4cccnc4)o3)ccc12 [PT-110, 3-(4-hydroxyphenyl)-7-[(5-(3-pyridyl)(1,3,4-oxadiazol-2-yl))methoxy]chromen-4-one] | No | – | No | – | –
5 | N#Cc1cccc(COc2ccc3c(=O)c(-c4ccc(O)cc4)coc3c2)c1 [PT-25, 3-{[3-(4-hydroxyphenyl)-4-oxochromen-7-yloxy]methyl}benzenecarbonitrile] | No | No | – | – | –
6 | NC(=O)c1ccc(-c2coc3cc(OCc4noc(-c5cc(F)cc(C(F)(F)F)c5)n4)ccc3c2=O)cc1 [PT-72, 4-[7-({5-[3-fluoro-5-(trifluoromethyl)phenyl](1,2,4-oxadiazol-3-yl)}methoxy)-4-oxochromen-3-yl]benzamide] | No | – | No | – | –

More lines, now with the values ahead:

Row | hMAO-A inhibition up to 10 μM (hMAO-A) | hMAO-B inhibition up to 10 μM (hMAO-B) | hMAO-B inhibition at 10 μM (hMAO-B) | hMAO-A inhibition up to 30 μM (hMAO-A) | hMAO-B inhibition up to 30 μM (hMAO-B) | SMILES
7 | No | No | – | – | – | O=c1c(-c2ccc(O)cc2)coc2cc(OCc3noc(-c4ccc(F)c(C(F)(F)F)c4)n3)ccc12 [PT-30, 7-({5-[4-fluoro-3-(trifluoromethyl)phenyl](1,2,4-oxadiazol-3-yl)}methoxy)-3-(4-hydroxyphenyl)chromen-4-one]
8 | No | – | No | – | – | O=c1c(-c2ccc(O)cc2)coc2cc(OCc3nc(-c4cccc(C(F)(F)F)c4)no3)ccc12 [PT-115, 3-(4-hydroxyphenyl)-7-({3-[3-(trifluoromethyl)phenyl](1,2,4-oxadiazol-5-yl)}methoxy)chromen-4-one]
9 | No | No | – | – | – | O=c1c(-c2ccc(O)cc2)coc2cc(OCc3noc(-c4cc(C(F)(F)F)cc(C(F)(F)F)c4)n3)ccc12 [PT-39, 7-({5-[3,5-bis(trifluoromethyl)phenyl](1,2,4-oxadiazol-3-yl)}methoxy)-3-(4-hydroxyphenyl)chromen-4-one]
10 | No | – | No | – | – | O=c1c(-c2ccc(O)cc2)coc2cc(OCc3coc(-c4cccc(C(F)(F)F)c4)n3)ccc12 [PT-12, 3-(4-hydroxyphenyl)-7-({2-[3-(trifluoromethyl)phenyl](1,3-oxazol-4-yl)}methoxy)chromen-4-one]
11 | No | – | No | – | – | O=c1c(-c2ccc(O)cc2)coc2cc(OCc3coc(-c4cc(F)cc(C(F)(F)F)c4)n3)ccc12 [PT-13, 7-({2-[5-fluoro-3-(trifluoromethyl)phenyl](1,3-oxazol-4-yl)}methoxy)-3-(4-hydroxyphenyl)chromen-4-one]
12 | – | – | – | No | No | O=c1c(-c2ccc(O)cc2)coc2cc(OCc3nc(-c4ccccc4)no3)ccc12 [PT-43, 3-(4-hydroxyphenyl)-7-[(3-phenyl(1,2,4-oxadiazol-5-yl))methoxy]chromen-4-one]
13 | No | – | no | – | – | O=c1c(-c2ccc(O)cc2)coc2cc(OCc3cc(-c4cc(C(F)(F)F)cc(C(F)(F)F)c4)on3)ccc12 [PT-62, 7-({5-[3,5-bis(trifluoromethyl)phenyl]isoxazol-3-yl}methoxy)-3-(4-hydroxyphenyl)chromen-4-one]
